One experiment concerns the target hD2L (Homo sapiens, UniProt P14416). To be noted: D2R.
The target in another experiment is T1, Opiate κ (OP2, KOP) (Homo sapiens, UniProt P41145).
T1 construct: Eurofins (contract assay)
Description: Eurofins SafetyScreen panel. The class given is binding.

The target in a further experiment is T2, Adrenergic β2 (Homo sapiens, UniProt P07550).
T2 construct: Eurofins (contract screening, SafetyScreen panel) PP223
Description: Eurofins SafetyScreen panel. Type of experiment: binding.

Another experiment deals with T3, Dopamine D2S (Homo sapiens, UniProt P14416).
T3 construct: purchased Eurofins (Panlabs) SafetyScreen87 Panel
Description: Eurofins SafetyScreen panel. Type of experiment: binding.

The target of another experiment is T4, Adrenergic β1 (Homo sapiens, UniProt P08588).
T4 construct: Eurofins (contract screening, SafetyScreen panel) PP223
Description: Eurofins SafetyScreen panel. Type of experiment: binding.

The mark [1] stands for this setting: read-out: %inh, 10 μM, additional batch.

SMILES strings stand for the structures. Structures can show the parent of a compound that is named as a salt. Where two headings read alike, the source gives them in different places.

T2 sequence (P07550 whole entry): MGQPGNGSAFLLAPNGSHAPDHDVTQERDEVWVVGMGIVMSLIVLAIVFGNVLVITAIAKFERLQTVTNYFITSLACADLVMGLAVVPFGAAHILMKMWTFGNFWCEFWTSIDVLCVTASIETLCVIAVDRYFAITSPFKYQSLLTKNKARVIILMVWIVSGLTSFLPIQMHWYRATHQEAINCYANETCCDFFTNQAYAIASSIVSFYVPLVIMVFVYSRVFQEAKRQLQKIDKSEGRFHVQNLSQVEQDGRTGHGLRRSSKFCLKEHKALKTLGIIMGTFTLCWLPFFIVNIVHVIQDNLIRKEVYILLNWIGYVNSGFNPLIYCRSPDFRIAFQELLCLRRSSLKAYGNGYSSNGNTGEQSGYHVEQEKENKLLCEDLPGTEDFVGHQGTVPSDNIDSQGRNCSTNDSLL
T4 sequence (P08588 whole entry): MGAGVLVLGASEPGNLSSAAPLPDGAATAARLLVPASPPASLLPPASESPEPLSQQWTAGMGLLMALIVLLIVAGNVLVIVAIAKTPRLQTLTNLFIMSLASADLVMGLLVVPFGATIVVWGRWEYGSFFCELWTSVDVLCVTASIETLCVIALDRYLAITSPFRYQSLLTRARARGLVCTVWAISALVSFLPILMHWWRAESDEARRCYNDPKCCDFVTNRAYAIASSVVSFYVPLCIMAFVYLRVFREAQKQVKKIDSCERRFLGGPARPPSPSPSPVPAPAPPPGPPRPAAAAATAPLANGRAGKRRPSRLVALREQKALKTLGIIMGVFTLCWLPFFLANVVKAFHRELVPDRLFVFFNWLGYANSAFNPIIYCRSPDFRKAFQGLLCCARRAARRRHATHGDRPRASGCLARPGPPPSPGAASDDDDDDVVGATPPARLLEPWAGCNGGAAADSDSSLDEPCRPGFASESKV
T1 sequence (P41145 whole entry): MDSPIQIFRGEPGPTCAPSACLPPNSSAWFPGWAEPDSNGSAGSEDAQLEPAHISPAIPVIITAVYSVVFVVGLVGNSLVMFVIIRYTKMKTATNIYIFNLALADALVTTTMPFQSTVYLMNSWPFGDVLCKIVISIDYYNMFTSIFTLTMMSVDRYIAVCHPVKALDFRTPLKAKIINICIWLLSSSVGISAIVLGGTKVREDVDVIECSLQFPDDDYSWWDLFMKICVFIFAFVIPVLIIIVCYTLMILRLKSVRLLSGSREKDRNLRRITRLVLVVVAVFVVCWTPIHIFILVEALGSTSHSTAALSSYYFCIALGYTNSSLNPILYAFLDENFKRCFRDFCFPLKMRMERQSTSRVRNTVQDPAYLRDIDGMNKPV
T3 sequence (P14416 1-414 isoform P14416-2): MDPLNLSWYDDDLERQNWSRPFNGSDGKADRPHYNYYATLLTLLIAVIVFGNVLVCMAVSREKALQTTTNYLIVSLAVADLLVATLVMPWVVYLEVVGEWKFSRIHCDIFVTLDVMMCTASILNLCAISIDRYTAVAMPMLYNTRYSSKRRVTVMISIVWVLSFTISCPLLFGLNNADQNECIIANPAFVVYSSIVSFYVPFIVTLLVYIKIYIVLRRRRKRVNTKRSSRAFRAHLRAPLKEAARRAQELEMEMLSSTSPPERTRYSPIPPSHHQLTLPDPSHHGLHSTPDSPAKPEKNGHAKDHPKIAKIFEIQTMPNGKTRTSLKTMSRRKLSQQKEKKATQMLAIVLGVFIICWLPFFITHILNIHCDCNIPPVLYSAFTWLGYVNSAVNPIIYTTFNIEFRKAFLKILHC
Sequence of hD2L (P14416 whole entry): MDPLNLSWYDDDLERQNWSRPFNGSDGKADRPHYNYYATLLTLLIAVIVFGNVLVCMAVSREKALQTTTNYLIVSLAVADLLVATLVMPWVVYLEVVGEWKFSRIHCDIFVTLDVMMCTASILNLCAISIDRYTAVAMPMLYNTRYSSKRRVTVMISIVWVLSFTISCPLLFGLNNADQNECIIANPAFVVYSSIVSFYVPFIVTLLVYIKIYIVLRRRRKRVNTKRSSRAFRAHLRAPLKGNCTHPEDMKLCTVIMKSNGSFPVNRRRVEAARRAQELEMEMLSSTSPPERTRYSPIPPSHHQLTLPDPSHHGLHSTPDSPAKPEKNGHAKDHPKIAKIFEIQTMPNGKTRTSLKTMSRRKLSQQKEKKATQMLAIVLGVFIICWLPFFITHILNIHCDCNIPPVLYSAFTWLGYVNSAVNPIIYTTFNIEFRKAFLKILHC
Description for hD2L: For membrane preparation, cells after reaching 90% confluence, were washed with phosphate-buffered saline (PBS), and pelleted by centrifugation (200 × g) in PBS containing 0.1 mM EDTA and 1 mM dithiothreitol.
The total reaction volume was 200 μL. The incubation process was terminated by filtration through UniFilter-96 (PerkinElmer) plates with the FilterMate Universal Harvester (PerkinElmer, #C961962), and radioactivity retained on the filters was quantified on a MicroBeta counter for radiometric detection (PerkinElmer). […] To evaluate the level of nonspecific signal 10 μM of 5-HT for 5-HT1AR and 5-HT7R, 20 μM of mianserin for 5-HT2AR, 10 μM of methiothepine for 5-HT6R and 10 μM of haloperidol for D2LR were used. […] The acquired results were presented as the mean of at least two independent experiments.

Consider `O=S(=O)(c1cccc(F)c1)n1ccc2c(N3CCNCC3)nc3ccccc3c21` [FPPQ, 1-[(3-Fluorophenyl)sulfonyl]-4-(piperazin-1-yl)-1H-pyrrolo[3,2-c]quinoline dihydrochloride], for which the Ki (as a rule, a dissociation constant, usually derived from enzyme kinetics or from competition with a known ligand) at hD2L was 4390 nM; on Opiate κ (OP2, KOP), 3270 nM; at Adrenergic β2 it was 85 nM; at Adrenergic β1 it was 170 nM. Besides, the IC50 (as a rule, the concentration that inhibits the measured activity by half) against Opiate κ (OP2, KOP) was 8180 nM; against Adrenergic β2 it was 120 nM; at Adrenergic β1 it was 300 nM. Also, the inhibition at 0.1 µM at Opiate κ (OP2, KOP) (read-out: %inh, 0.1 μM) came to 5%; against Adrenergic β2 (0.1 μM), 43%; at Adrenergic β1 (read-out: %inh, 0.1 μM), 27%. Besides, the inhibition at 1 µM at Opiate κ (OP2, KOP) (read-out: %inh, 1 μM) was determined as 8%; against Adrenergic β2 (1 μM) it was 93%; at Adrenergic β1 (read-out: %inh, 1 μM) it was 75%. Besides, the inhibition at 10 µM at Opiate κ (OP2, KOP) (read-out: %inh, 10 μM) amounted to 55%; on Opiate κ (OP2, KOP) (setting [1]), 64%; at Adrenergic β2 it was 103%; at Adrenergic β2 (additional batch), 99%; against Dopamine D2S, 46%; on Adrenergic β1 (setting [1]) it was 102%. Moreover, on Opiate κ (OP2, KOP) (read-out: %inh, 100 μM), the inhibition at 100 µM is 99%. Moreover, the inhibition at 0.01 µM is 9% on Adrenergic β2 (10 nM) and -3% at Adrenergic β1 (read-out: %inh, 10 nM).
